Reference: US11591596B2, “Compounds and compositions including phosphorothioated oligodeoxynucleotide, and methods of use thereof” (City of Hope, priority 2015, dated 2023)

Test system: miR-126
Experiment: In vitro and in vivo uptake and miR-126 silencing (K562, HUVEC, CD34+CD38- cells, murine CML BM, LTHSC, EC, mice)
Set-up: species or system human and mouse
Settings: 500 nM in vitro; 5 mg/kg iv in vivo
Experimental: FIGS. 23A-23K. […] Uptake test measured by flow cytometric analysis at 4 hours (FIG. 23A) and 24 hours (FIG. 23B) after addition of CpG-miR-126 inhibitor-Cy3 (CpG), Ab-NPs (Ab-NP) or TF-NPs (TF-NP) containing miR-126 inhibitor-Cy3, or naked miR-126 inhibitor-Cy3 (labeled as Control in FIGS. 23A and B) in K562 cells. The experiment was replicated twice. miR-126 expression in K562 was measured by Q-RT-PCR at 24 hours (n=3) (FIG. 23C). Uptake in HUVEC (FIG. 23D), human normal (FIG. 23E) and CML (FIG. 23F) CD34^+CD38^− cells at 4 hours after addition of CpG-miR-126 inhibitor-Cy3 (500 nM) was measured by flow cytometry. miR-126 expression in HUVEC (FIG. 23G), normal (FIG. 23H) and CML (FIG. 23I) CD34^+CD38^− cells treated with CpG-miR-126 inhibitor (500 nM) for 24 hours is shown (n=4). […]
FIGS. 25A-25O. […] Murine CML BM, LTHSC and EC cells were treated with CpG-miR-126 inhibitor-Cy3 (500 nM) for 4 hours and then Cy3^+ cells were detected by flow cytometry (FIG. 25A). The cells were also collected at 24 hours and miR-126 expression was determined by Q-RT-PCR (FIG. 25B). Cell cycling was measured by EDU staining at 72 hours after addition of CpG-miR-126 inhibitor in CML BM LTHSC. […] CML mice were treated with CpG-miR-126 inhibitor-Cy3 with one dose (5 mg/kg, iv injection) and Cy3 uptake in BM, LTHSC and EC was measured at 16 hours after treatment by flow cytometry (FIG. 25D). […]

With “5′ G*G*T GCA TCG ATG CAGG*G*G* G*G (SEQ ID NO: 1) xxxxx mCmGmC mAmUmU mAmUmU mAmCmU mCmAmC mGmGmU mAmCmG mA (SEQ ID NO: 17) 3′ [CpG-anti-miR126]” the “uptake and gene silencing effects” value was “Effective in vitro and in vivo uptake and gene silencing effects”.
